{"source": "patent US20240209043A1", "about": "“NON-ANTIBODY BINDING PEPTIDES AND THEIR ANALOGS DUAL-TARGETING TO PD-1 AND PD-L1, AND USES THEREOF” (ORAL SUBSIDIARY SUN YAT-SEN UNIVERSITY HOSPITAL, priority 2021, published 2024)", "key": {"[1]": {"molecular_target": "T1, PD-1 on the surface of Jurkat T cells (Homo sapiens, UniProt Q15116)", "T1 construct": "when Jurkat cells were stimulated by PMA, they highly expressed PD-1; endogenous in cells; host or cells: Jurkat T cells stimulated with PMA and ionomycin", "T1 sequence (Q15116 25-288)": "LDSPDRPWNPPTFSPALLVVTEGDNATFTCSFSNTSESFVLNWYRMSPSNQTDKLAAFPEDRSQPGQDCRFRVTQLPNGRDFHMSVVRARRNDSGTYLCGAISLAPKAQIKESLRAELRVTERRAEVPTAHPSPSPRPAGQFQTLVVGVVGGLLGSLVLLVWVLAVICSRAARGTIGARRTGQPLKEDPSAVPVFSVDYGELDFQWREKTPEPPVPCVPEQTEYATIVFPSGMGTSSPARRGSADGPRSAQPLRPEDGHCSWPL", "test": "Immunofluorescence and flow cytometry analysis of specific binding of FITC-stained peptides to Jurkat T cells", "format": "cell-based", "conditions": "flow cytometry; 10 μM or 40 μM FITC peptide", "method": "(§1) Experiments were divided into an experimental group and a control group. In the experimental group, Jurkat T cells were stimulated for 24 hours with 50 ng/ml of Phorbol 12-myristate 13-acetate (PMA) and 1 ug/ml of Ionomycin Calcium Salt (Ionomycin) to express PD-1, while in the control group, Jurkat T cells were not stimulated and thus hardly expressed any PD-1. For immunofluorescence analysis, Jurkat T cells (1×10^6) were obtained and blocked with 2% BSA for 1 hour at room temperature to decrease specific binding. After blocking, the cells were collected and incubated with 10 μM of peptides stained with FITC (green fluorescence) for 1 hour at 37° C. PBS was used for washing the cells three times and 4% paraformaldehyde was used for immobilization. […] PBS was used for washing three times again and anti-fade mounting medium was used for preserving fluorescence. Further, fluorescence confocal microscope images were analyzed by using Image J software to evaluate the ability of polypeptides to compete the binding sites of PD-1. […] Subsequently, the cells were incubated with 10 μM or 40 μM of peptides stained with FITC (green fluorescence) for 1 hour at 4° C. PBS was used for washing three times, and finally 500 ul of PBS was used for resuspending the cells, which were then transferred to flow tubes and analyzed by flow cytometry (CytoFLEX, BECK MANCOULTER, America)."}, "[2]": {"molecular_target": "T2, PD-1 expressed on the surface of stimulated Jurkat T cells (Homo sapiens, UniProt Q15116)", "T2 construct": "when Jurkat cells were stimulated by PMA, they highly expressed PD-1; endogenous in cells; host or cells: Jurkat T cells stimulated with PMA and ionomycin", "T2 sequence (Q15116 25-288)": "as above", "test": "Blocking capacity: competitive binding to PD-1 on stimulated Jurkat T cells (immunofluorescence, mean fluorescence intensity)", "format": "cell-based", "conditions": "1 hour incubation, equal concentration", "method": "as §1, with “America). […]” for “America).”"}, "[3]": {"molecular_target": "T3, recombinant Human PD-L1 protein binding to PD-1-expressing Jurkat T cells (Homo sapiens, UniProt Q15116)", "T3 construct": "when Jurkat cells were stimulated by PMA, they highly expressed PD-1; host or cells: Jurkat T cells stimulated with PMA and ionomycin", "T3 sequence (Q15116 25-288)": "as above", "test": "Neutralization of recombinant Human PD-L1 protein binding to PD-1-expressing Jurkat T cells (flow cytometry)", "format": "cell-based", "conditions": "peptide 0.4-40 μM mixed with PD-L1 protein, stimulated Jurkat T cells", "method": "The Jurkat T cells were divided into two groups, an experimental group and a control group, wherein in the experimental group, 50 ng/ml of Phorbol 12-myristate 13-acetate (PAM) and 1 ug/ml of Ionomycin Calcium Salt (Ionomycin) were used to stimulate the cells, and in the control group, Jurkat T cells were unstimulated. The cells (5×10^5) were collected in each tube, and washed once with FACS buffer (PBS with 2% BSA). Then recombinant Human PD-L1 protein (PD1-H82F3, Acro Biosystems) was diluted to 4 ug/ml with FACS, and PD-1 binding peptides were diluted with FACS to a series of concentrations of 0.4 μM, 1.33 μM, 4 μM, 13.3 μM, and 40 μM. Subsequently, the two working solutions (PD-L1 protein diluent and peptide diluent) were mixed in an equal volume and 100 ul of mixed solutions at different concentrations were added to the centrifuge tubes together with the cells, incubated for 1 hour at 4° C. FACS buffer was used for washing the cells three times, and 0.12 ug/ml of APC Streptavidin (405207, Biolegend) was added to each tube and the incubation was performed for 1 hour at 4° C., and then the cells were washed three times with FACS buffer again, and 500 μl of PBS was added to resuspend the cells, which were further transferred to flow tubes and analyzed by flow cytometry.\nFurther, neutralization capacity of nABP284 and new peptides to recombinant Human PD-L1 protein were studied. […]"}, "Jurkat T cells": {"system": "Jurkat T cells", "test": "CCK-8 cytotoxicity assay on Jurkat T cells", "format": "cell-based, Human", "conditions": "CCK-8, 1-64 μM, 24 hours", "method": "(§2) Cytotoxicity assay was performed and measured with Cell Counting Kit-8 (CCK-8, Dujindo, Japan). Jurkat cells (each well with 4000 cells), PBMCs (each well with 4000 cells) and Cal27 cells (each well with 2000 cells) were added into a 96-well plate and cultured for 24 hours, respectively. nABP284, nABP386 and nABP486 in a concentration gradient of 1 μM, 2 μM, 3 μM, 4 μM, 8 μM, 16 μM, 32 μM and 64 μM were added into the medium and the cells were cultured for 24 hours in a cell incubator. After that, 10 μl of CCK-8 solution was added to each well and the cells were incubated for 2 hours. VictorX5 Multilabel plate reader (PerkinElmer, Singapore) was used for measuring absorbance of each well at 450 nm. Cell viability (%) was calculated by the following formula:\n(§3) Cell viability (%)=[(Sample A−Background A)/(Control A−Blank A)×100%. • Wherein Sample A denotes the absorbance of the experimental well (including cells, CCK-8 solution, medium and peptide diluent) • Background A denotes the absorbance of the background hole (including CCK-8 solution, medium, and peptide diluent without cells); • Control A denotes the absorbance of the control hole (including cells, CCK-8 solution and medium without peptide diluent); and • Blank A denotes the absorbance of the blank hole (including CCK-8 solution and medium without cells and peptide diluent)."}, "Cal27 cells": {"system": "Cal27 cells", "test": "CCK-8 cytotoxicity assay on Cal27 cells", "format": "cell-based, Human", "conditions": "CCK-8, 1-64 μM, 24 hours", "method": "as §2, §3"}, "[4]": {"system": "PD-1/PD-L1 interaction in Jurkat T / Cal27 co-culture", "test": "Co-culture of stimulated Jurkat T cells and stimulated Cal27 cells, IL-2 ELISA", "format": "cell-based, Human", "conditions": "10 μM peptide or 2 ug/ml antibody, 24 hours co-culture, compared with the control group", "method": "50 ng/ml of Phorbol 12-myristate 13-acetate (PMA) and 1 ug/ml of Ionomycin Calcium Salt (Ionomycin) were used for stimulating Jurkat T cells for 24 hours, and 500 U/ml of IFN-γ was used for stimulating CAL27 cells for 48 hours. The stimulated Jurkat T cells were incubated with 10 μM of nABP284, 10 μM of nABP386, 10 μM of nABP486, and 2 ug/ml of PD-1 functional monoclonal antibody (J116, eBioscience|ThermoFisher Science) for 1 hour in advance at 37° C., respectively, and the stimulated CAL27 cells were added to the 96-well plate at 1×10^4 cells per well. When CAL27 cells were immobilized, a supernate was removed. The Jurkat T cells at a ratio of 4 to 1 and 200 ul of medium were added to each well. After these cells were co-cultured for 24 hours, a supernate was collected and analyzed by ELISA kit (88-7025-86, Thermo Fisher Scientific) to measure the amount of IL-2 in the supernate."}, "PD-1 [5]": {"molecular_target": "T4, PD-1 (Homo sapiens, UniProt Q15116)", "conditions": "in vitro, prior patent; cited from earlier work"}, "tumor": {"system": "tumor", "conditions": "prior patent; cited from earlier work"}, "PD-1 [6]": {"molecular_target": "T4, PD-1", "test": "SPR affinity assay on recombinant Human PD-1 protein (Biocore T100, CM5 chip)", "format": "binding", "parameters": "purchased Acro Biosystems PD1-H5221", "method": "The affinity of the peptides was tested with Biocore T100 through surface plasmon resonance (SPR) technique. […] Finally, the affinities (Kd-value) of the peptides were calculated by fitting curves in the sensor diagram in Biacore software.\nThe binding affinities (Kd-value) of nABP386, nABP486, and nABP786 to PD-1 were detected by Surface plasma resonance (SPR), respectively."}}, "note": "Where no end group is shown, it is not given here."}
{"sequence": "SRLKEIANSPTQFWRMVARNTLGGAKQSLNIEHARL [nABP284]", "values": [{"measurement": "binding rate to PD-1-expressing Jurkat T cells", "setting": "[1]", "result": "may increase with its increasing concentration"}, {"measurement": "blocking capacity on PD-1 (mean fluorescence intensity)", "setting": "[2]", "result": "have a blocking capacity on PD-1 expressed on the surface of stimulated Jurkat T cells"}, {"measurement": "neutralization capacity to recombinant Human PD-L1 protein", "setting": "[3]", "result": "can be inhibited"}, {"measurement": "direct cytotoxicity to Jurkat T cells", "setting": "Jurkat T cells", "result": "no directly cytotoxicity"}, {"measurement": "direct cytotoxicity to Cal27 cells", "setting": "Cal27 cells", "result": "no directly cytotoxicity"}, {"measurement": "secretion level of IL-2 in the co-culture system", "setting": "[4]", "result": "significantly increased"}, {"measurement": "blocking of PD-L1 ligand binding to PD-1", "setting": "PD-1 [5]", "result": "can block the binding of PD-L1 ligand to PD-1"}, {"measurement": "secretion of IL-2 and tumor cytotoxicity of T lymphocytes", "setting": "PD-1 [5]", "result": "enhance the secretion of interleukin 2 (IL-2) and tumor cytotoxicity of T lymphocytes"}, {"measurement": "tumor growth in mice", "setting": "tumor", "result": "inhibit tumor growth in mice"}, {"measurement": "binding affinity to PD-1, in words", "setting": "PD-1 [6]", "result": "can specifically bind to PD-1 with moderate affinity"}]}
